# Experimental data published in US7468281B2, “Hollow fiber membrane sample preparation devices” (priority 2001, dated 2008).
# Values joined by “and” are separate entries in the source; they are usually repeats but may differ in a detail not shown here. Identical values can stand only once. Like-named read-outs stand apart in the source and are kept apart here.
# Key:
# [1] = LPME of drugs from human plasma, urine and whole blood with vial format device, CZE analysis; format: physicochemical
# [2] = LPME of seven basic drugs from water with different acidic acceptor phases, CE analysis; format: physicochemical
# [3] = LPME of seven basic drugs with different hollow fibres (polypropylene, polysulfone); format: physicochemical
# [4] = LPME of eight basic drugs from water with phosphate buffer acceptors of different pH, CE analysis; format: physicochemical
# [5] = LPME with different supported liquid membrane liquids, 96 well format device, HPLC analysis; conditions: 0.1 M hydrochloric acid acceptor, 30 min
# Description: A mixture of acidic and basic drugs was used in this study, together with 0.1 M hydrochloric acid or 0.1 M sodium hydroxide as the acceptor phase.
# Four different membrane forming small molecular weight organic liquids were investigated for selectivity differences, viz. hexyl ether, 4-nitrophenyl octyl ether, 1-octanol and 2-octyl-1-dodecanol. […] A cover plate of a 96 well block, carrying polypropylene fiber of 8 cm length, 600 μm inner diameter and 0.2 μm pore size, was dipped into each of these pure liquids for 5 seconds. These liquids were contained in different wells of a 96 well plate. The fibers in the cover plate were then washed by sonication in water for 15 seconds to remove excess material sticking to the fibers. A five component mixture of acidic and basic drugs was prepared from acetaminophen, naproxen, bamethane, quinidine and doxepin. Concentrations of the stock drug solutions were 1.0 mg/mL in each case. […] This is to maintain roughly the same level of analytical signal with each of these drugs. The mixture was diluted to 20 mL with water so that the concentrations of the three dilute drugs is in the range of 1 μg/mL, while those of the more concentrated drugs is in the range of 5 μg/mL. 500 μL of this diluted mixture of drugs is further diluted eight fold (to 4 mL) with water containing 250 μL of 2.0 M sodium hydroxide and used for extraction. […] The acceptor solution consisted of 25 μL of 0.1 M hydrochloric acid in each case. Extraction time with vibration was 30 min for each membrane liquid. The enriched acceptor solution was diluted three fold in each case and 25 μL of the resulting diluted solution used for analysis by high performance liquid chromatography on a Omnisphere C18 column using acetonitrile/pH 7.0 dipotassium hydrogen phosphate as mobile phase. A gradient from 5% acetonitrile to 40% was used to elute the strongly retained components in a reasonable time frame.
# [6] = human plasma, same fashion as tramadol example, running buffer 75 mM phosphate pH 3.0 + triethylamine + hydroxypropyl-β-cyclodextrin
# [7] = human plasma 0.5 mL, hexyl ether, 0.1 M hydrochloric acid (17 μL) acceptor, 45 minutes, tramadol example
# [8] = acceptor phase 10 mM CH3COOH, measured pH 3.3, water sample, 100 ng/mL
# [9] = acceptor phase 10 mM H2S04, measured pH 2.1, water sample, 100 ng/mL
# [10] = acceptor phase 10 mM H3PO4, measured pH 2.5, water sample, 100 ng/mL
# [11] = acceptor phase 10 mM HCOOH, measured pH 3.1, water sample, 100 ng/mL
# [12] = acceptor phase 10 mM HCl, measured pH 2.1, water sample, 100 ng/mL
# [13] = acceptor phase 10 mM HNO3, measured pH 1.9, water sample, 100 ng/mL
# [14] = acceptor phase 10 mM acetate, measured pH 4.8, water sample, 100 ng/mL
# [15] = acceptor phase 10 mM phosphate, measured pH 3.3, water sample, 100 ng/mL
# [16] = acceptor phase 100 mM CH3COOH, measured pH 2.7, water sample, 100 ng/mL
# [17] = acceptor phase 100 mM H2S04, measured pH 1.3, water sample, 100 ng/mL
# [18] = acceptor phase 100 mM H3PO4, measured pH 1.8, water sample, 100 ng/mL
# [19] = acceptor phase 100 mM HCOOH, measured pH 2.3, water sample, 100 ng/mL
# [20] = acceptor phase 100 mM HCl, measured pH 1.2, water sample, 100 ng/mL
# [21] = acceptor phase 100 mM phosphate, measured pH 3.0, water sample, 100 ng/mL
# [22] = hollow fibre Polypropylene, 280 μm ID, hexyl ether, 0.01 M hydrochloric acid acceptor
# [23] = hollow fibre Polypropylene, 600 μm ID, hexyl ether, 0.01 M hydrochloric acid acceptor
# [24] = hollow fibre Polysulfone, 500 μm ID, hexyl ether, 0.01 M hydrochloric acid acceptor
# [25] = 10 mM phosphate buffer acceptor pH 2.5, 60 minutes
# [26] = 10 mM phosphate buffer acceptor pH 3.5, 60 minutes
# [27] = 10 mM phosphate buffer acceptor pH 4.5, 60 minutes
# [28] = 10 mM phosphate buffer acceptor pH 5.5, 60 minutes
# [29] = 10 mM phosphate buffer acceptor pH 6.5, 60 minutes
# [30] = 10 mM phosphate buffer acceptor pH 7.5, 60 minutes
# [31] = human urine 2.0 mL, hexyl ether, 0.01 M hydrochloric acid acceptor, 45 minutes
# [32] = acceptor phase 100 mM HNO3, measured pH 1.1, water sample, 100 ng/mL
# [33] = supported liquid membrane 1-octanol
# [34] = supported liquid membrane 2-octyl-1-dodecanol
# [35] = supported liquid membrane 4-nitrophenyl octyl ether
# [36] = supported liquid membrane Hexyl Ether
# [37] = human plasma 250 μL, hexyl ether membrane, 0.01 M hydrochloric acid acceptor, 30 minutes
# [38] = human whole blood 250 μL, hexyl ether membrane, 0.01 M hydrochloric acid acceptor, 30 minutes
# [39] = human urine or plasma 2.5 mL, 1-octanol membrane, 0.1M hydrochloric acid acceptor, 45 minutes
compound,measurement,setting,value
"CN1CCN2c3ccccc3Cc3ccccc3C2C1 (stereo not drawn) [Mianserine, mianserine]",Enrichment,[1]; [6],15 fold
same,Extraction efficiency,[1]; [6],50%
"CNCCCC1(c2ccc(F)cc2)OCc2cc(C#N)ccc21 (stereo not drawn) [N-desmethyl metabolite, N-desmethylcitalopram]",Preconcentration,"[1]; patient plasma 1 mL, hexyl ether membrane, 20 mM phosphate buffer pH 2.75 acceptor, 45 minutes",30 fold
"COc1ccc2cc([C@H](C)C(=O)O)ccc2c1 [Naproxen, naproxen]",Enrichment,[1],82 fold
"COc1cccc(C2(O)CCCCC2CN(C)C)c1 (stereo not drawn) [Tramadol, tramadol]",Enrichment,[1]; [7],30 fold
same,Extraction efficiency,[1]; [7],100%
CC(N)Cc1ccccc1 (stereo not drawn) [amphetamine],Enrichment (average of 3 replicates),[2]; [8],66
same,Enrichment (average of 3 replicates),[2]; [9],104
same,Enrichment (average of 3 replicates),[2]; [10],72
same,Enrichment (average of 3 replicates),[2]; [11],72
same,Enrichment (average of 3 replicates),[2]; [12],82
same,Enrichment (average of 3 replicates),[2]; [13],48
same,Enrichment (average of 3 replicates),[2]; [14],90
same,Enrichment (average of 3 replicates),[2]; [15],123
same,Enrichment (average of 3 replicates),[2]; [16],48
same,Enrichment (average of 3 replicates),[2]; [17],98
same,Enrichment (average of 3 replicates),[2]; [18],58
same,Enrichment (average of 3 replicates),[2]; [19],5
same,Enrichment (average of 3 replicates),[2]; [20],74
same,Enrichment (average of 3 replicates),[2]; [21],128
same,Enrichment (average of 3 replicates),[3]; [22],104
same,Enrichment (average of 3 replicates),[3]; [23],82
same,Enrichment (average of 3 replicates),[3]; [24],22
same,Enrichment (average of 3 replicates),[4]; [25],107
same,Enrichment (average of 3 replicates),[4]; [26],102
same,Enrichment (average of 3 replicates),[4]; [27],104
same,Enrichment (average of 3 replicates),[4]; [28],93
same,Enrichment (average of 3 replicates),[4]; [29],88
same,Enrichment (average of 3 replicates),[4]; [30],64
same,Enrichment,[1]; [31],77
same,Extraction efficiency,[1]; [31],97%
CN1CCN(C(c2ccccc2)c2ccc(Cl)cc2)CC1 (stereo not drawn) [chlorcyclizine],Enrichment (average of 3 replicates),[2]; [8],32
same,Enrichment (average of 3 replicates),[2]; [9],122
same,Enrichment (average of 3 replicates),[2]; [10],118
same,Enrichment (average of 3 replicates),[2]; [11],72
same,Enrichment (average of 3 replicates),[2]; [12],126
same,Enrichment (average of 3 replicates),[2]; [13],120
same,Enrichment (average of 3 replicates),[2]; [14],3
same,Enrichment (average of 3 replicates),[2]; [15],83
same,Enrichment (average of 3 replicates),[2]; [16],66
same,Enrichment (average of 3 replicates),[2]; [17],136
same,Enrichment (average of 3 replicates),[2]; [18],80
same,Enrichment (average of 3 replicates),[2]; [19],93
same,Enrichment (average of 3 replicates),[2]; [20],138
same,Enrichment (average of 3 replicates),[2]; [32],136
same,Enrichment (average of 3 replicates),[2]; [21],93
same,Enrichment (average of 3 replicates),[3]; [22],106
same,Enrichment (average of 3 replicates),[3]; [23],126
same,Enrichment (average of 3 replicates),[3]; [24],110
same,Enrichment (average of 3 replicates),[4]; [25],123
same,Enrichment (average of 3 replicates),[4]; [26],32
same,Enrichment (average of 3 replicates),[4]; [27],5
same,Enrichment,"[1]; human plasma 2.0 mL, hexyl ether, 0.01 M hydrochloric acid acceptor, 45 minutes",52
CN1C(=O)CN=C(c2ccccc2)c2cc(Cl)ccc21 [diazepam],Enrichment (average of 3 replicates),[4]; pH 2.5,3
same,Enrichment (average of 3 replicates),[4]; pH 3.5,2
CN(C)CCC=C1c2ccccc2COc2ccccc21 [doxepin],Enrichment,[5]; [33],58
same,Enrichment,[5]; [34],147
same,Enrichment,[5]; [35],227
same,Enrichment,[5]; [36],202
O=C(CCCN1CCC(O)(c2ccc(Cl)cc2)CC1)c1ccc(F)cc1 [haloperidol],Enrichment (average of 3 replicates),[3],131
CCC(=O)C(CC(C)N(C)C)(c1ccccc1)c1ccccc1 (stereo not drawn) [methadone],Enrichment (average of 3 replicates),[2]; [8],86
same,Enrichment (average of 3 replicates),[2]; [9],157
same,Enrichment (average of 3 replicates),[2]; [10],96
same,Enrichment (average of 3 replicates),[2]; [11],114
same,Enrichment (average of 3 replicates),[2]; [12],138
same,Enrichment (average of 3 replicates),[2]; [13],141
same,Enrichment (average of 3 replicates),[2]; [14],42
same,Enrichment (average of 3 replicates),[2]; [15],134
same,Enrichment (average of 3 replicates),[2]; [16],84
same,Enrichment (average of 3 replicates),[2]; [17],150
same,Enrichment (average of 3 replicates),[2]; [18],77
same,Enrichment (average of 3 replicates),[2]; [19],91
same,Enrichment (average of 3 replicates),[2]; [20],134
same,Enrichment (average of 3 replicates),[2]; [32],107
same,Enrichment (average of 3 replicates),"[2]; acceptor phase 100 mM acetate, measured pH 4.8, water sample, 100 ng/mL",42
same,Enrichment (average of 3 replicates),[2]; [21],117
same,Enrichment (average of 3 replicates),[3]; [22],138
same,Enrichment (average of 3 replicates),[3]; [23],138
same,Enrichment (average of 3 replicates),[3]; [24],139
same,Enrichment,[1]; [37],6.4
same,Enrichment,[1]; [38],5.4
CN[C@@H](C)Cc1ccccc1 [methamphetamine],Enrichment (average of 3 replicates),[2]; [8],93
same,Enrichment (average of 3 replicates),[2]; [9],141
same,Enrichment (average of 3 replicates),[2]; [10],96
same,Enrichment (average of 3 replicates),[2]; [11],106
same,Enrichment (average of 3 replicates),[2]; [12],122
same,Enrichment (average of 3 replicates),[2]; [13],125
same,Enrichment (average of 3 replicates),[2]; [14],128
same,Enrichment (average of 3 replicates),[2]; [15],136
same,Enrichment (average of 3 replicates),[2]; [16],77
same,Enrichment (average of 3 replicates),[2]; [17],134
same,Enrichment (average of 3 replicates),[2]; [18],83
same,Enrichment (average of 3 replicates),[2]; [19],13
same,Enrichment (average of 3 replicates),[2]; [20],120
same,Enrichment (average of 3 replicates),[2]; [21],133
same,Enrichment (average of 3 replicates),[3]; [22],123
same,Enrichment (average of 3 replicates),[3]; [23],122
same,Enrichment (average of 3 replicates),[3]; [24],46
same,Enriched to the extent of,"[3]; polypropylene fiber, 600 μm inner diameter, hexyl ether, 0.01 M hydrochloric acid",82%
same,Recovered/enriched to the extent of,"[3]; polysulfone fiber, 500 μm inner diameter, hexyl ether, 0.01 M hydrochloric acid",22%
same,Enrichment (average of 3 replicates),[4]; [25],150
same,Enrichment (average of 3 replicates),[4]; [26],146
same,Enrichment (average of 3 replicates),[4]; [27],150
same,Enrichment (average of 3 replicates),[4]; [28],134
same,Enrichment (average of 3 replicates),[4]; [29],122
same,Enrichment (average of 3 replicates),[4]; [30],88
same,Enrichment,[1]; [37],8.1
same,Extraction efficiency,[1]; [37],81%
same,Enrichment,[1]; [39],75 fold
same,Extraction efficiency,[1]; [39],75%
same,Enrichment,"[1]; human whole blood 2.5 mL, 280 μm ID polypropylene fiber, hexyl ether, 17 μL 0.1 M hydrochloric acid acceptor, 30 minutes",one hundred
same,Enrichment,[1]; [38],7.8
same,Extraction efficiency,[1]; [38],78%
COc1ccc2c(c1OC)C(=O)O[C@@H]2[C@H]1c2c(cc3c(c2OC)OCO3)CCN1C [noscapin],Enrichment (average of 3 replicates),[4]; [25],8
same,Enrichment (average of 3 replicates),[4]; [26],2
CCOC(=O)C1(c2ccccc2)CCN(C)CC1 [pethidine],Enrichment (average of 3 replicates),[2]; pH 1.1,64
same,Enrichment (average of 3 replicates),[2]; pH 1.2,139
same,Enrichment (average of 3 replicates),[2]; pH 1.3,141
same,Enrichment (average of 3 replicates),[2]; pH 1.8,90
same,Enrichment (average of 3 replicates),[2]; pH 1.9,106
same,Enrichment (average of 3 replicates),[2]; pH 2.1,128 and 144
same,Enrichment (average of 3 replicates),[2]; pH 2.3,106
same,Enrichment (average of 3 replicates),[2]; pH 2.5,98
same,Enrichment (average of 3 replicates),[2]; pH 2.7,90
same,Enrichment (average of 3 replicates),[2]; pH 3,131
same,Enrichment (average of 3 replicates),[2]; pH 3.1,115
same,Enrichment (average of 3 replicates),[2]; pH 3.3,96 and 139
same,Enrichment (average of 3 replicates),[2]; pH 4.8,106 and 91
same,Enrichment (average of 3 replicates),[3],125 and 128 and 122
same,Enrichment (average of 3 replicates),[4]; pH 2.5,160
same,Enrichment (average of 3 replicates),[4]; pH 3.5,147
same,Enrichment (average of 3 replicates),[4]; pH 4.5,131
same,Enrichment (average of 3 replicates),[4]; pH 5.5,90
same,Enrichment (average of 3 replicates),[4]; pH 6.5,34
same,Enrichment (average of 3 replicates),[4]; pH 7.5,6
same,Enrichment,[1],74%/7.4 and 72%/7.2
same,Extraction efficiency,[1],74%/7.4 and 72%/7.2
CC(CN1c2ccccc2Sc2ccccc21)N(C)C (stereo not drawn) [promethazine],Enrichment,[1]; [37],5.5
same,Extraction efficiency,[1]; [37],55%
same,Enrichment,[1]; [38],4.3
same,Extraction efficiency,[1]; [38],43%
C=C[C@H]1C[N@@]2CC[C@H]1C[C@@H]2[C@@H](O)c1ccnc2ccc(OC)cc12 [quinidine],Enrichment,[5]; [33],100
same,Enrichment,[5]; [34],20
same,Enrichment,[5]; [35],52
same,Enrichment,[5]; [36],100
COC(=O)[C@H]1[C@H]2C[C@@H]3c4[nH]c5cc(OC)ccc5c4CCN3C[C@H]2C[C@@H](OC(=O)c2cc(OC)c(OC)c(OC)c2)[C@@H]1OC [reserpin],Enrichment (average of 3 replicates),[4]; [25],18
same,Enrichment (average of 3 replicates),[4]; [26],2
